Measured values reported in ChEMBL document CHEMBL1145735, “Synthesis and antitumor activity of novel C-8 ester derivatives of leinamycin” (Bioorg Med Chem Lett, 2003).

Key:
[1] = tested on: Mus musculus; experiment: In vivo antitumor activity against murine sarcoma 180 cells at an optimal dose of 2 mg/kg.; assay type: functional
[2] = tested on: Mus musculus; experiment: In vivo antitumor activity against lymphocytic leukemia P388 in mice expressed as maximal increase in life span at an optimal dose of 2 mg/kg.; assay type: functional
[3] = tested on: Mus musculus; experiment: In vivo antitumor activity against murine sarcoma 180 cells at an optimal dose of 4 mg/kg.; assay type: functional
[4] = tested on: HeLa; experiment: In vitro antiproliferative activity against HeLa S3 cells.; assay type: functional, cell-based; details: Homo sapiens
[5] = tested on: Mus musculus; experiment: In vivo antitumor activity against lymphocytic leukemia P388 in mice expressed as maximal increase in life span at an optimal dose of 8 mg/kg.; assay type: functional
[6] = tested on: Mus musculus; experiment: In vivo antitumor activity against murine sarcoma 180 cells at an optimal dose of 8 mg/kg.; assay type: functional
[7] = tested on: Mus musculus; experiment: Antitumor activity against human Lu-65 tumor cells, at a dose of 5.3 mg/kg upon i.v. administration in nude mice; assay type: functional; details: route intravenous
[8] = tested on: Mus musculus; experiment: In vivo antitumor activity against murine sarcoma 180 cells at an optimal dose of 16 mg/kg.; assay type: functional
[9] = tested on: Mus musculus; experiment: Antitumor activity against human A-2780 tumor cells, at a dose of 12 mg/kg upon i.v. administration in nude mice; assay type: functional; details: route intravenous
[10] = tested on: Mus musculus; experiment: Antitumor activity against human Lu-65 tumor cells, at a dose of 12 mg/kg upon i.v. administration in nude mice; assay type: functional; details: route intravenous
[11] = tested on: Mus musculus; experiment: In vivo antitumor activity against lymphocytic leukemia P388 in mice expressed as maximal increase in life span at an optimal dose of 4 mg/kg.; assay type: functional
[12] = tested on: Mus musculus; experiment: In vivo antitumor activity against lymphocytic leukemia P388 in mice expressed as maximal increase in life span at an optimal dose of 16 mg/kg.; assay type: functional
[13] = tested on: Mus musculus; experiment: Antitumor activity against human A-2780 tumor cells, at a dose of 5.3 mg/kg upon i.v. administration in nude mice; assay type: functional; details: route intravenous
[14] = tested on: Mus musculus; experiment: Antitumor activity against human HCT116 tumor cells, at a dose of 5.3 mg/kg upon i.v. administration in nude mice; assay type: functional; details: route intravenous
[15] = tested on: Mus musculus; experiment: Antitumor activity against human Lu-65 tumor cells, at a dose of 8 mg/kg upon i.v. administration in nude mice; assay type: functional; details: route intravenous
[16] = tested on: Mus musculus; experiment: In vivo antitumor activity against murine sarcoma 180 cells at an optimal dose of mg/kg.; assay type: functional
[17] = tested on: Mus musculus; experiment: Antitumor activity against human HCT116 tumor cells, at a dose of 12 mg/kg upon i.v. administration in nude mice; assay type: functional; details: route intravenous

`C/C1=C\[C@@H](O)C(=O)/C=C/C=Cc2csc(n2)[C@@H](C)N2C(=O)C[C@@]([C@@](C)(O)C(=O)SCc3oc(=O)oc3C)(CC1)[S+]2[O-]` (stereo partly drawn) gave a T/C [1] of 0.67 and an ILS at 2 mg/kg [2] of 65%.

Work on `C/C1=C\[C@@H](OC(=O)CNC(=O)CNC(=O)OCc2ccccc2)C(=O)/C=C/C=C/c2csc(n2)[C@@H](C)N2C(=O)C[C@@]([C@@](C)(O)C(=O)SCc3oc(=O)oc3C)(CC1)[S+]2[O-]` (stereo partly drawn) yielded a T/C [3] of 0.61, an IC50 [4] of 15 nM and an ILS at 8 mg/kg [5] of 64%.

In the case of `COCCOCCOCC(=O)O[C@@H]1/C=C(\C)CC[C@]2([C@@](C)(O)C(=O)SCc3oc(=O)oc3C)CC(=O)N([C@H](C)c3nc(cs3)/C=C/C=C/C1=O)[S+]2[O-]` (stereo partly drawn), the IC50 [4] is reported as 5.5 nM, the ILS at 2 mg/kg [2] is reported as 54% and the T/C [6] is reported as 0.39. The T/C [7] was 0.35.

`C/C1=C\[C@@H](OC(=O)CNC(=O)CCNC(=O)OC(C)(C)C)C(=O)/C=C/C=C/c2csc(n2)[C@@H](C)N2C(=O)C[C@@]([C@@](C)(O)C(=O)SCc3oc(=O)oc3C)(CC1)[S+]2[O-]` (stereo partly drawn) was tested, and the IC50 [4] was 12 nM, the ILS at 8 mg/kg [5] was 70% and the T/C [8] was 0.23.

`C/C1=C\[C@@H](OC(=O)CNC(=O)CNC(=O)OC(C)(C)C)C(=O)/C=C/C=C/c2csc(n2)[C@@H](C)N2C(=O)C[C@@]([C@@](C)(O)C(=O)SCc3oc(=O)oc3C)(CC1)[S+]2[O-]` (stereo partly drawn) showed a T/C [9] of 0.51, an IC50 [4] of 14 nM and a T/C [10] of 0.33. For the same compound, the T/C [6] was 0.39 and the ILS at 4 mg/kg [11] was 39%.

`C/C1=C\[C@@H](OC(=O)CNC(=O)OCc2ccccc2)C(=O)/C=C/C=C/c2csc(n2)[C@@H](C)N2C(=O)C[C@@]([C@@](C)(O)C(=O)SCc3oc(=O)oc3C)(CC1)[S+]2[O-]` (stereo partly drawn) gave an IC50 [4] of 4 nM, an ILS at 8 mg/kg [5] of 98% and a T/C [8] of 0.36.

`COCCOCCOCCOCCOCCOCC(=O)O[C@@H]1/C=C(\C)CC[C@]2([C@@](C)(O)C(=O)SCc3oc(=O)oc3C)CC(=O)N([C@H](C)c3nc(cs3)/C=C/C=C/C1=O)[S+]2[O-]` (stereo partly drawn) showed an IC50 [4] of 43 nM and a T/C [6] of 0.58.

For `C/C1=C\[C@@H](OC(=O)CNC(=O)CNC(=O)c2ccccc2)C(=O)/C=C/C=C/c2csc(n2)[C@@H](C)N2C(=O)C[C@@]([C@@](C)(O)C(=O)SCc3oc(=O)oc3C)(CC1)[S+]2[O-]` (stereo partly drawn), the IC50 [4] was 32 nM, the ILS at 16 mg/kg [12] was 90% and the T/C [6] was 0.46.

For `C/C1=C\[C@@H](OC(=O)CCNC(=O)CCNC(=O)OCc2ccccc2)C(=O)/C=C/C=C\c2csc(n2)[C@H](C)NC(=O)C[C@@]2(CC1)[S+]([O-])SC(=O)[C@]2(C)O` (stereo partly drawn), the IC50 [4] was 61 nM, the ILS at 16 mg/kg [12] was 62% and the T/C [8] was 0.58.

Compound `C/C1=C\[C@@H](OC(=O)CNC=O)C(=O)/C=C/C=C\c2csc(n2)[C@H](C)NC(=O)C[C@@]2(CC1)[S+]([O-])SC(=O)[C@]2(C)O` (stereo partly drawn) has a T/C [3] of 0.46, an IC50 [4] of 11 nM and a T/C [13] of 0.29. It also gave an ILS at 8 mg/kg [5] of 56%, a T/C [7] of 0.43 and a T/C [14] of 0.62.

Compound `COCCOCCOCCOCCOCCOCC(=O)O[C@@H]1/C=C(\C)CC[C@]2(CC(=O)N[C@@H](C)c3nc(cs3)/C=C\C=C\C1=O)[S+]([O-])SC(=O)[C@]2(C)O` (stereo partly drawn) has an IC50 [4] of 11 nM, a T/C [15] of 0.2 and a T/C [6] of 0.3.

In the case of `COCCOCCOCCOCC(=O)O[C@@H]1/C=C(\C)CC[C@]2(CC(=O)N[C@@H](C)c3nc(cs3)/C=C\C=C\C1=O)[S+]([O-])SC(=O)[C@]2(C)O` (stereo partly drawn), the T/C [3] is reported as 0.82 and the IC50 [4] is reported as 610 nM.

With `C/C1=C\[C@@H](OC(=O)CNC(=O)OCc2ccccc2)C(=O)/C=C/C=C\c2csc(n2)[C@H](C)NC(=O)C[C@@]2(CC1)[S+]([O-])SC(=O)[C@]2(C)O` (stereo partly drawn) the IC50 [4] was 6.2 nM, the ILS at 8 mg/kg [5] was 54% and the T/C [16] was 0.89.

With `C/C1=C\[C@@H](OC(=O)COCCOCCO)C(=O)/C=C/C=C\c2csc(n2)[C@H](C)NC(=O)C[C@@]2(CC1)[S+]([O-])SC(=O)[C@]2(C)O` (stereo partly drawn) the T/C [3] was 0.36 and the IC50 [4] was 25 nM.

Compound `C/C1=C\[C@@H](OC(=O)CNC(=O)CNC(=O)OCc2ccccc2)C(=O)/C=C/C=C\c2csc(n2)[C@H](C)NC(=O)C[C@@]2(CC1)[S+]([O-])SC(=O)[C@]2(C)O` (stereo partly drawn) has a T/C [9] of 0.63, an IC50 [4] of 23 nM and a T/C [10] of 0.3. It also gave a T/C [6] of 0.3, an ILS at 4 mg/kg [11] of 72% and a T/C [17] of 0.48.

In the case of `C/C1=C\[C@@H](OC(=O)CCNC(=O)CNC(=O)OCc2ccccc2)C(=O)/C=C/C=C\c2csc(n2)[C@H](C)NC(=O)C[C@@]2(CC1)[S+]([O-])SC(=O)[C@]2(C)O` (stereo partly drawn), the IC50 [4] is reported as 150 nM, the ILS at 16 mg/kg [12] is reported as 71% and the T/C [8] is reported as 0.69.
